We go through 6 compounds from ChEMBL document CHEMBL1201862, “PubChem BioAssay data set” (2004).

The source made the active and inactive calls.

The AC50 is the concentration at which the activity in the assay is half-maximal.

Assay [1] can be described thus: Counterscreen for activators of the function of SWI/SNF related, matrix associated, actin dependent regulator of chromatin, subfamily a, member 2 (SMARCA2, BRM): Luminescence-based cell-based high throughput dose response assay to identify non-selective compounds using the VP16 reporter assay. It is filed as functional. In general terms: The purpose of a counterscreen is to sort out artefacts and off-target activity.

Assay [2] addresses T1, Histone-lysine N-methyltransferase NSD2 (Homo sapiens, UniProt O96028).
T1 sequence (O96028 whole entry): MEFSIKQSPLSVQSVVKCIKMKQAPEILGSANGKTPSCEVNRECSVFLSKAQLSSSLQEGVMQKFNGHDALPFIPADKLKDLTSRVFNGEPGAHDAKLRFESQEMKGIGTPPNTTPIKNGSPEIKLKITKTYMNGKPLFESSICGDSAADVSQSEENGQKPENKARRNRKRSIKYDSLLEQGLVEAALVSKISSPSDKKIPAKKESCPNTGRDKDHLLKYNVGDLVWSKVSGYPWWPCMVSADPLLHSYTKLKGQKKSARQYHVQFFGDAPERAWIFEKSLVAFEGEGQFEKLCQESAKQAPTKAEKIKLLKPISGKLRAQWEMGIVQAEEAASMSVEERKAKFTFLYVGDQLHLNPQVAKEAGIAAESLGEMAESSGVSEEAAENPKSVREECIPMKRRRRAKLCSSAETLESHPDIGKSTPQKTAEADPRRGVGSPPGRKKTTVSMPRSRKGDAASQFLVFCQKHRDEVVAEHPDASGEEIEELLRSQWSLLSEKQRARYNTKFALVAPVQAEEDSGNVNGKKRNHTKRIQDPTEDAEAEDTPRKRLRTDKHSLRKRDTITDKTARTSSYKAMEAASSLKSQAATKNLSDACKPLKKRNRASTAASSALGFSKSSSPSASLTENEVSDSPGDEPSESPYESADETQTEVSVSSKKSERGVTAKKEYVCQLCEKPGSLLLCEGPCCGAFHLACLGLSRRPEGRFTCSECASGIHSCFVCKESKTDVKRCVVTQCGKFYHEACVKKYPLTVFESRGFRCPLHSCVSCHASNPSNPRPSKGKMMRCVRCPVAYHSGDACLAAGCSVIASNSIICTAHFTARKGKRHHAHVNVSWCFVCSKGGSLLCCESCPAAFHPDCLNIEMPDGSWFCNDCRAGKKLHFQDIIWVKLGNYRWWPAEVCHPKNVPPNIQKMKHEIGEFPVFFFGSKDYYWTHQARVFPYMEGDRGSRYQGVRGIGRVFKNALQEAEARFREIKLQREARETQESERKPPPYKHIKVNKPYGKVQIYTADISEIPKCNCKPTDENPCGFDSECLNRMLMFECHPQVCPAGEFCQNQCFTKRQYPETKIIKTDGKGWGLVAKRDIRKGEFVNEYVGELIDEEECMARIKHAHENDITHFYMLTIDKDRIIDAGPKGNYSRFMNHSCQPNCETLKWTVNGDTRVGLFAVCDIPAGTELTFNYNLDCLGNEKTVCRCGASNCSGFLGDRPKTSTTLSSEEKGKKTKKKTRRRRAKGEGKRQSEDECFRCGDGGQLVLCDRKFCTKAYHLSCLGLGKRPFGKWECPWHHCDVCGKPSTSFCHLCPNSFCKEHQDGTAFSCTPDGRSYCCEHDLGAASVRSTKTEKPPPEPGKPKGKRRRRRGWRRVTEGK
It is filed as biochemical.

Assay [3] concerns the target SWI/SNF-related matrix-associated actin-dependent regulator of chromatin subfamily A member 2 (Homo sapiens, UniProt P51531). Kind of assay: Luminescence-based cell-based high throughput dose response assay to identify activators of the function of SWI/SNF related, matrix associated, actin dependent regulator of chromatin, subfamily a, member 2 (SMARCA2, BRM). Type of assay: functional.

The target of a further assay is Beta-galactosidase (Escherichia coli, UniProt Q8VNN2). Kind of assay: Dose response counterscreen for EBI2 assay utilizing the enzyme, b-galactosidase. Type of assay: functional.
Assay [4] deals with T2, Sentrin-specific protease 8 (Homo sapiens, UniProt Q96LD8).
T2 sequence (Q96LD8 whole entry): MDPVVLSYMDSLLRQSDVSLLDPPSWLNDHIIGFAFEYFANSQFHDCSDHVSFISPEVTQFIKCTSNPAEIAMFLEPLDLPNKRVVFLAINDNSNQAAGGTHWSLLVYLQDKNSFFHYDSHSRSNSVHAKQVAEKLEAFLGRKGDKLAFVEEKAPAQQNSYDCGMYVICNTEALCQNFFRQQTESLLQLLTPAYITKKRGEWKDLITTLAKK
It is filed as functional.

Assay [5] has as its target T2, Sentrin-specific protease 8. It is filed as functional. This is another data set of the same source.
In assay [6] the target is T3, Corticotropin-releasing factor receptor 2/Corticotropin-releasing factor-binding protein (Homo sapiens, UniProt P24387+Q13324).
T3 sequence (Q13324 whole entry): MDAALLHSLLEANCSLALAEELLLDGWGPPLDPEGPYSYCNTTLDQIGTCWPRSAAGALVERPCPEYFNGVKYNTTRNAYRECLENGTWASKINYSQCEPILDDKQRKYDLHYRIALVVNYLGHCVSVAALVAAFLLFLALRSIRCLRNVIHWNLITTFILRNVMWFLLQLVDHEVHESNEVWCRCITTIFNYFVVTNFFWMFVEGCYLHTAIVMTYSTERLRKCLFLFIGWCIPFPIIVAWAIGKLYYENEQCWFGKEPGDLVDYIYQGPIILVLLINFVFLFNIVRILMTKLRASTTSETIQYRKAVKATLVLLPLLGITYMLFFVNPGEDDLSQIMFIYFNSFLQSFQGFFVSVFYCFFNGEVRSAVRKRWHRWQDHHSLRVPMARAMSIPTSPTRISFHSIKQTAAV
T3 sequence (P24387 whole entry): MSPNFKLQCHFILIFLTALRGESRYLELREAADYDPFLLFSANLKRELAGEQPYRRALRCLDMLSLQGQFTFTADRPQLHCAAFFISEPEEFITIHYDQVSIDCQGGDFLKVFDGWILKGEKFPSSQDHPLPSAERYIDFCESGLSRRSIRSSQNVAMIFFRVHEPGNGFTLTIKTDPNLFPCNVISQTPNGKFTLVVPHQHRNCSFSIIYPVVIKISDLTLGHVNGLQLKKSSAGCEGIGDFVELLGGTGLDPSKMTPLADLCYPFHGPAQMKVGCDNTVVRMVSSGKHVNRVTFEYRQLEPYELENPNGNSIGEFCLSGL
Kind of assay: Dose Response confirmation of uHTS hits for small molecule antagonists of the CRF-binding protein and CRF-R2 receptor complex. It is filed as functional. The conditions noted are these: read-out: IC50_Mean.

Assay [7] deals with T3, Corticotropin-releasing factor receptor 2/Corticotropin-releasing factor-binding protein. Kind of assay: activators of CRF receptor 2 with binding protein – uHTS hits, confirmation (AID 602473). It is filed as functional. The conditions noted are these: read-out: EC50_Mean.
For the next assay, the target named is T4, Protein RecA (Mycobacterium tuberculosis, UniProt P9WHJ3).
T4 sequence (P9WHJ3 whole entry): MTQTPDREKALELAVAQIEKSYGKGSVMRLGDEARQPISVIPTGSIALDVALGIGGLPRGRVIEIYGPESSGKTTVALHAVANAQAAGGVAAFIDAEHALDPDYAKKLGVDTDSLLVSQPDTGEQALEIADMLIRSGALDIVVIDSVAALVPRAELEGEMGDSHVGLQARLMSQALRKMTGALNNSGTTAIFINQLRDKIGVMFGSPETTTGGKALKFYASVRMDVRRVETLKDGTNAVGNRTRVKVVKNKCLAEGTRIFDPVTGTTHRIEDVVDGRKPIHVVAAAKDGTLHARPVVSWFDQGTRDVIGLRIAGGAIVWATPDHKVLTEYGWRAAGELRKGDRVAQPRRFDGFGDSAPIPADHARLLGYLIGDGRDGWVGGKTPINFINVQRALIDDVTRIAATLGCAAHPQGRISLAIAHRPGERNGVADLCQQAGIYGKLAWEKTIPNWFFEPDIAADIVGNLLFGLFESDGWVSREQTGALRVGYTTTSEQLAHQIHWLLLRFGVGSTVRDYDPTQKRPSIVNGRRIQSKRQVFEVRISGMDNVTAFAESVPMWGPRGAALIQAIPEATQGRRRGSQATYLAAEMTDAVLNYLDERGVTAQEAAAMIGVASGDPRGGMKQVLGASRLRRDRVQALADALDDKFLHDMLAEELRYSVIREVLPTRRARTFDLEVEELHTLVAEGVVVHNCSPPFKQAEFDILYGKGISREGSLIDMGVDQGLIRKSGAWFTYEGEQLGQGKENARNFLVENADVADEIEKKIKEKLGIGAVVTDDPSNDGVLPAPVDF
Kind of assay: Fluorescence Cell-Free Homogeneous Dose Retest to Identify Inhibitors of RecA-Intein Splicing Activity. [Related pubchem assays (depositor defined):AID2097, AID2223, AID489010, AID492950]. It is filed as functional.

For another assay, the target named is T5, Caspase-6 (Homo sapiens, UniProt P55212).
T5 sequence (P55212 whole entry): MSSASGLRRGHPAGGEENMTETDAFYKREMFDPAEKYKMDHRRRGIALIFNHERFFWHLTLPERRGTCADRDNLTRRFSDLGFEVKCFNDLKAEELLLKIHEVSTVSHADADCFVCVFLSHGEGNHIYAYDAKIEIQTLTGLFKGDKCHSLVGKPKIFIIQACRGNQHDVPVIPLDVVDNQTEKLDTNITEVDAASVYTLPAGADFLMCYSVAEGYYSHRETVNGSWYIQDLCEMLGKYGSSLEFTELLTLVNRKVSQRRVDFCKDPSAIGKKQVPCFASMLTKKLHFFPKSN
As to the kind of experiment: human caspase-6 inhibitors, dose response, biochemical, VEID-R110 fluorescence, cherry-pick (AID 720632).

Assay [8] addresses T6, Carboxy-terminal domain RNA polymerase II polypeptide A small phosphatase 1 (Homo sapiens, UniProt Q9GZU7).
T6 sequence (Q9GZU7 whole entry): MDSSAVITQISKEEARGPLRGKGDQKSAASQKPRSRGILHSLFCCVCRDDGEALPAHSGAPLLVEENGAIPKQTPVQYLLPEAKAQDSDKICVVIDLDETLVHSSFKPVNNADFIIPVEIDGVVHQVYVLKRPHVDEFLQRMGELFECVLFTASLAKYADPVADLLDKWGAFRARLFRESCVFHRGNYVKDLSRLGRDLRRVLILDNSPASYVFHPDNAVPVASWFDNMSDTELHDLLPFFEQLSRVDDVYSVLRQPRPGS
As to the kind of experiment: inhibitors of CTDSP1, concentration-response testing, biochemical assay, absorbance-based, actives from ultra-high-throughput screening (AID 540297). Type of assay: functional.

In assay [9] the target is T7, Small ubiquitin-related modifier 1 (Homo sapiens, UniProt P63165). Kind of assay: inhibitors of SUMO1 partner interactions, dose response, biochemical, FRET (AID 624383). It is filed as functional. To be noted: read-out: IC50_Mean.
Assay [10] addresses T8, Replicative DNA helicase DnaB (Mycobacterium tuberculosis, UniProt P9WMR3).
T8 sequence (P9WMR3 whole entry): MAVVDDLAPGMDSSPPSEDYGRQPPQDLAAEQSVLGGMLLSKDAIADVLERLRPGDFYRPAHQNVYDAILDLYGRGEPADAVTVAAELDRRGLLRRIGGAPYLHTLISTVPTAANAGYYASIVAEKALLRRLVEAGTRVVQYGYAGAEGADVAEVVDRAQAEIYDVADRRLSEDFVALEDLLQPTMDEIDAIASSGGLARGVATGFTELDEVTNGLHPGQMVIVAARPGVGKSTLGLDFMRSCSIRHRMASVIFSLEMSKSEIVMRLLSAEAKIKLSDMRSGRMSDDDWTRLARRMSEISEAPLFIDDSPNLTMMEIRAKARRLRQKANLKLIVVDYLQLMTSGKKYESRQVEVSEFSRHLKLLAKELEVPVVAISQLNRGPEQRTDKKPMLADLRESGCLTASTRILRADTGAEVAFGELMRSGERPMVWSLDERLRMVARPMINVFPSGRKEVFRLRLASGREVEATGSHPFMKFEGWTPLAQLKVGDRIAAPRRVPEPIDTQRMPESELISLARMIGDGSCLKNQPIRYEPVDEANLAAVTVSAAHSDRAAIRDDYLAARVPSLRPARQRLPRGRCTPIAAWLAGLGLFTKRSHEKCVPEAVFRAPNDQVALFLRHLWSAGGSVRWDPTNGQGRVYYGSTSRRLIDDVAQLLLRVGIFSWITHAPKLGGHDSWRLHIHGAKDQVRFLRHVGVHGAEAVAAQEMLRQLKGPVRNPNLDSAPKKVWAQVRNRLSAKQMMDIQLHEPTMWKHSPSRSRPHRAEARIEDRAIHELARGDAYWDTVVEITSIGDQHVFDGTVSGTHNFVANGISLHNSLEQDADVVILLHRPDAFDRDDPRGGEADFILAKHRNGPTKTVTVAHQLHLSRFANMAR
Kind of assay: DnaB intein splicing inhibitors, dose response, biochemical, cell-free fluorescence (AID 449749). Type of assay: functional.

In assay [11] the target is T7, Small ubiquitin-related modifier 1. Kind of assay: inhibitors of SUMO1 peptide binding, dose response, biochemical, fluorescence polarization, uHTS hits (AID 624382). The conditions noted are these: read-out: IC50_Mean. It is filed as functional. Background: Fluorescence polarisation rises when a labelled molecule tumbles more slowly, as on binding a larger partner.

Sequence of SWI/SNF-related matrix-associated actin-dependent regulator of chromatin subfamily A member 2 (P51531 whole entry): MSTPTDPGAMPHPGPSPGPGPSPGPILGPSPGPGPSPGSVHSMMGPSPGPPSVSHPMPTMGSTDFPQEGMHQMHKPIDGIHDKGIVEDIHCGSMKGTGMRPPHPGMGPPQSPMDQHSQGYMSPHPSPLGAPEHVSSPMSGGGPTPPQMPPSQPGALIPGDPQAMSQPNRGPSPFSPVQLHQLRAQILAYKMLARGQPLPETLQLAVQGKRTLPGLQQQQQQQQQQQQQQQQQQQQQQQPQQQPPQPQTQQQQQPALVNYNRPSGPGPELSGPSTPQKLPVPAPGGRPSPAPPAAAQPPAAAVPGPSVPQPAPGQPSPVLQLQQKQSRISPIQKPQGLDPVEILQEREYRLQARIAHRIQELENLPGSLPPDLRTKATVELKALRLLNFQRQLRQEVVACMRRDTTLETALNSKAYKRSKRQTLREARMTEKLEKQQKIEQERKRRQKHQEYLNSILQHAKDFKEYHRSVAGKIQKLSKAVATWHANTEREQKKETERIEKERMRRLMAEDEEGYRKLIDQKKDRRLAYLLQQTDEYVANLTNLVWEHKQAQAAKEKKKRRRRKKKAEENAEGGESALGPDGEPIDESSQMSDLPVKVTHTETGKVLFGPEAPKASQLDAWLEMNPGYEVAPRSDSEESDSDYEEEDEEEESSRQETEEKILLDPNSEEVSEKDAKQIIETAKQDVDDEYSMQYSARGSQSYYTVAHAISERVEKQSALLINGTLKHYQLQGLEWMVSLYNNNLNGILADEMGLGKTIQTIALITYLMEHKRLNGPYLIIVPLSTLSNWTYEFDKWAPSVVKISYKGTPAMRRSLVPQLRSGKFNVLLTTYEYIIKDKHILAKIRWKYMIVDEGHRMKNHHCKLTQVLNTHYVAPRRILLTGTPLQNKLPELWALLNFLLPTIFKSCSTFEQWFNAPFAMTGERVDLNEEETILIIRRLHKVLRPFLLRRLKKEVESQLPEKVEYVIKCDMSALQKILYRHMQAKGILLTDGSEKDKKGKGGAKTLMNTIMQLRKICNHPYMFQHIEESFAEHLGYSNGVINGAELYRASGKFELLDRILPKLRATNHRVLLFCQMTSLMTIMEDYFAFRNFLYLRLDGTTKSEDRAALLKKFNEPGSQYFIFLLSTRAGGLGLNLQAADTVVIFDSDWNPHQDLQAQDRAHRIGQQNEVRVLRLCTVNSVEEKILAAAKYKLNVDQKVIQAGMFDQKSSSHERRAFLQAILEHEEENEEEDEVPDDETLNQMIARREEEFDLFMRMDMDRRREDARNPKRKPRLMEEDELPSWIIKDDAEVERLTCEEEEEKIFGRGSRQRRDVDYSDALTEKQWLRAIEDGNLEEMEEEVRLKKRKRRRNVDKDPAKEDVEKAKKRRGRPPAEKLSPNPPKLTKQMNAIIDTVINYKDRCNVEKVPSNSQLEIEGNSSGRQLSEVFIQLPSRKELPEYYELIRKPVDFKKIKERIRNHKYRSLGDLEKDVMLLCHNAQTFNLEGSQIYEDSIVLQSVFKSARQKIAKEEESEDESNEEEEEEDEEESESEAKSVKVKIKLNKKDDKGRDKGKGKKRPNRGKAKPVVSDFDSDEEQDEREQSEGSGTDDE
Sequence of Beta-galactosidase (Q8VNN2 whole entry): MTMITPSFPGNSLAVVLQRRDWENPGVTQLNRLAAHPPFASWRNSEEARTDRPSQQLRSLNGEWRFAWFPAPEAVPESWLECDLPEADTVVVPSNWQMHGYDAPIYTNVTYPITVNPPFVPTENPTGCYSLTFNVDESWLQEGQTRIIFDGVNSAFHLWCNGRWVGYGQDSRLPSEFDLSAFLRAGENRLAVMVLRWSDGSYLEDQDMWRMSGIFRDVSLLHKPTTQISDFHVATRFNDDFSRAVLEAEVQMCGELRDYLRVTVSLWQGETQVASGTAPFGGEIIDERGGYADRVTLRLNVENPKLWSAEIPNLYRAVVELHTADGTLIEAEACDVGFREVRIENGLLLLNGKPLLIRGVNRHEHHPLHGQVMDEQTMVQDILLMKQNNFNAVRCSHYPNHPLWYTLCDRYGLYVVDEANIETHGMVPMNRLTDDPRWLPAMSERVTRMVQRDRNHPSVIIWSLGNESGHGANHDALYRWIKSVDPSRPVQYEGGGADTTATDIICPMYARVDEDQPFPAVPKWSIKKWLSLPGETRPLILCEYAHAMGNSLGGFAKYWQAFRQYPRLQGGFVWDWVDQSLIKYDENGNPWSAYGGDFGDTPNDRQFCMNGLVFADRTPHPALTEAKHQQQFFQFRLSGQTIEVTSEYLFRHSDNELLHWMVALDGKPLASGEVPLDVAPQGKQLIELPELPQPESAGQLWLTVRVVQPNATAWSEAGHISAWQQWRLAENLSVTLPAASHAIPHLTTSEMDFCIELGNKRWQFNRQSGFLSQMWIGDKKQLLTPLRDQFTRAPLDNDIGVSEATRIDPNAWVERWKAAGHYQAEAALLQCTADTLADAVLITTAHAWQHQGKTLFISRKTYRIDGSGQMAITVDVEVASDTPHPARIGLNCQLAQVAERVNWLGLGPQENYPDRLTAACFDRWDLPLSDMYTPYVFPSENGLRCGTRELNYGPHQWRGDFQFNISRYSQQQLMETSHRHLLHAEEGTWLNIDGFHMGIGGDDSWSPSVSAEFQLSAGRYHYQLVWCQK
T7 sequence (P63165 whole entry): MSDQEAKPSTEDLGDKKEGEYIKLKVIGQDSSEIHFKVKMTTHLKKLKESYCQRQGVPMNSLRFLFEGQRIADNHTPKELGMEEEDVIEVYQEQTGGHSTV

Take `O=[N+]([O-])c1ccc(N(CCO)CCO)c2c1no[n+]2[O-]`: the EC50 in assay [1] and in assay [3] was > 91.2 µM (inactive) each time. Besides, the AC50 in [2] was 4.45 µM (active).
On to `CCOC(=O)N1CCN(C(=O)/C=C/c2ccc(OC)cc2)CC1`, for which, on Beta-galactosidase, the IC50 is > 80 µM (inactive).
With `O=C(COc1ccccc1)N1CCc2ccccc2C1`, the IC50 in assay [4] is 23.7 µM (active); in [5], 93.6 µM (inactive).
Take `CC(=O)N1CCOc2ccc(S(=O)(=O)N3CCC(C(=O)NCc4ccc(C)cc4)CC3)cc21`: the values for the IC50 (in assay [6]; at Beta-galactosidase) were > 47.1 µM (inactive) and > 80 µM (inactive), respectively. In addition, in assay [7], the EC50 was > 53 µM (inactive).
Regarding `CC(C)CSc1nnc(-c2ccco2)n1C`, the EC50 in assay [1] and in assay [3] was > 91.2 µM (inactive) in each case.
For `CC1=NN(c2ccc(Cl)c(C(=O)O)c2)C(=O)C1`, the EC50 at Protein RecA was 2.15 µM (active). For the same compound, the AC50 is 1.16 µM (active) at Caspase-6 and 1.88 µM (active) in [10]. For the same compound, the IC50 in [8] was 8.96 µM (active); in assay [9], 9.17 µM (active); in assay [11] it was > 66.6 µM (inactive).
